A short description of one data set: Solubility in H2O. The conditions noted are these: water; saturated solution in H2O at r.t., centrifugation, absorption of supernatant (UV/Vis). The class given is physicochemical.
For data set [1], the target named is T1, P0 (P0-expressing RT4 D6P2T cells) (Rattus norvegicus, UniProt P06907).
T1 construct: was performed using P0-expressing RT4 D6P2T cells; host or cells: RT4 D6P2T Schwannoma cells
T1 sequence (P06907 30-248): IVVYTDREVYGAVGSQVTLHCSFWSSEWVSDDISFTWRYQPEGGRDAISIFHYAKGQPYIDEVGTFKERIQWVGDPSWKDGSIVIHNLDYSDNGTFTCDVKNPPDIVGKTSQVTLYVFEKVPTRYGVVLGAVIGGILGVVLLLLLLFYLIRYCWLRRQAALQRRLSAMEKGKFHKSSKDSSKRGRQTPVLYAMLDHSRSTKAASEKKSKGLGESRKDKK
As to the kind of experiment: Flow cytometric saturation binding (KD). To be noted: saturation binding 0–2000 nM, flow cytometry APC-A channel, triplicate, repeated at least three times. How it is done:
Analysis of the binding affinity (KD) of Cy5-P0_1–25, Cy5-P0_41–65, Cy5-P0_61–85, Cy5-P0_81–105, Cy5-P0_95–120 and Cy5-P0_101–125 for P0 was performed using P0-expressing RT4 D6P2T cells and a previously described flow cytometric method. For saturation, binding experiments were performed for each of the fluorescent peptides in a concentration range of 0–2000 nM. All measurements were taken in triplicate, and experiments were repeated at least three times per tracer. Fluorescence was measured using a FACSCanto II flow cytometry device (BD Biosciences) in the APC-A channel. The normalized geometric means were fitted with equations in the GraphPad Prism 5 software. A fluorescence-linked immunoabsorbent assay (FLISA) that was used to confirm the specificity of Cy5-P0_101–125 for P0 is described in Additional file 1: Fluorescence-linked immunoabsorbent assay.
On the technique in general: In flow cytometry, cells or beads pass a laser one at a time.

Molecules are shown by their SMILES. ≈ marks a conversion by molar mass, not a printed value. Residues, ends and D or L forms follow the SMILES beside them. *: point of attachment. X1 = CC1(C)C(/C=C/C=C/C=C2/N(CCCCS(=O)(=O)O)c3ccc(S(=O)(=O)O)cc3C2(C)C)=[N+](CCCCCC(=O)NCCN2C(=O)CC(*)C2=O)c2ccc(S(=O)(=O)[O-])cc21 Where only a bound is given, the exact number is not on record here.

For orientation: solubility (thermodynamic) means solubility found after equilibrating the solid with the medium. The term Kd denotes the free concentration of one partner at which half of the binding sites on the other are occupied at equilibrium, for simple one-to-one binding.

`CC[C@H](C)[C@H](NC(=O)[C@H](CO)NC(=O)CNC(C)=O)C(=O)N[C@H](C(=O)N[C@H](C(=O)N[C@@H](Cc1c[nH]cn1)C(=O)N[C@@H](CC(N)=O)C(=O)N[C@@H](CC(C)C)C(=O)N[C@@H](CC(=O)O)C(=O)N[C@@H](Cc1ccc(O)cc1)C(=O)N[C@@H](CO)C(=O)N[C@@H](CC(=O)O)C(=O)N[C@@H](CC(N)=O)C(=O)NCC(=O)N[C@H](C(=O)N[C@@H](Cc1ccccc1)C(=O)N[C@H](C(=O)N[C@@H](CSC1CC(=O)N(CCNC(=O)CCCCC[N+]2=C(/C=C/C=C/C=C3/N(CCCCS(=O)(=O)O)c4ccc(S(=O)(=O)O)cc4C3(C)C)C(C)(C)c3cc(S(=O)(=O)[O-])ccc32)C1=O)C(=O)N[C@@H](CC(=O)O)C(=O)N[C@H](C(=O)N[C@@H](CCCCN)C(=O)N[C@@H](CC(N)=O)C(=O)N1CCC[C@H]1C(=O)N1CCC[C@H]1C(=O)N[C@@H](CC(=O)O)C(N)=O)C(C)C)[C@@H](C)O)[C@@H](C)O)[C@@H](C)CC)C(C)C` (stereo partly drawn) [Cy5-P0_81–105] (Ac-GSIVIHNLDYSDNGTFTC(X1)DVKNPPD-NH2) displayed a solubility (thermodynamic) in “Solubility in H2O” of 68 µM (≈ 248 µg/mL). The compound also yielded a Kd in data set [1] of more than 1 µM.
The corresponding values for `CC[C@H](C)[C@H](NC(=O)[C@H](CC(=O)O)NC(=O)[C@@H]1CCCN1C(=O)[C@@H]1CCCN1C(=O)[C@H](CC(N)=O)NC(=O)[C@H](CCCCN)NC(=O)[C@@H](NC(=O)[C@H](CC(=O)O)NC(=O)[C@H](C)NC(=O)[C@@H](NC(=O)[C@H](Cc1ccccc1)NC(=O)[C@@H](NC(C)=O)[C@@H](C)O)[C@@H](C)O)C(C)C)C(=O)N[C@H](C(=O)NCC(=O)N[C@@H](CCCCN)C(=O)N[C@H](C(=O)N[C@@H](CO)C(=O)N[C@@H](CCC(N)=O)C(=O)N[C@H](C(=O)N[C@H](C(=O)N[C@@H](CC(C)C)C(=O)N[C@@H](Cc1ccc(O)cc1)C(=O)N[C@H](C(=O)N[C@@H](Cc1ccccc1)C(=O)N[C@@H](CCC(=O)O)C(=O)N[C@@H](CCCCN)C(=O)N[C@@H](CSC1CC(=O)N(CCNC(=O)CCCCC[N+]2=C(/C=C/C=C/C=C3/N(CCCCS(=O)(=O)O)c4ccc(S(=O)(=O)O)cc4C3(C)C)C(C)(C)c3cc(S(=O)(=O)[O-])ccc32)C1=O)C(N)=O)C(C)C)[C@@H](C)O)C(C)C)[C@@H](C)O)C(C)C` (stereo partly drawn) [Cy5-P0_95–120] (Ac-TFTADVKNPPDIVGKTSQVTLYVFEKC(X1)-NH2) are 150 µM (≈ 589 µg/mL) and more than 1 µM.
For `CC[C@H](C)[C@H](N)C(=O)N[C@H](C(=O)N[C@H](C(=O)N[C@@H](Cc1ccc(O)cc1)C(=O)N[C@H](C(=O)N[C@@H](CC(=O)O)C(=O)N[C@@H](CCCNC(=N)N)C(=O)N[C@@H](CCC(=O)O)C(=O)N[C@H](C(=O)N[C@@H](Cc1c[nH]cn1)C(=O)NCC(=O)N[C@@H](C)C(=O)N[C@H](C(=O)NCC(=O)N[C@@H](CO)C(=O)N[C@@H](CCCNC(=N)N)C(=O)N[C@H](C(=O)N[C@H](C(=O)N[C@@H](CC(C)C)C(=O)N[C@@H](Cc1c[nH]cn1)C(=O)N[C@@H](CSC1CC(=O)N(CCNC(=O)CCCCC[N+]2=C(/C=C/C=C/C=C3/N(CCCCS(=O)(=O)O)c4ccc(S(=O)(=O)O)cc4C3(C)C)C(C)(C)c3cc(S(=O)(=O)[O-])ccc32)C1=O)C(=O)N[C@@H](CO)C(=O)N[C@@H](Cc1ccccc1)C(=O)N[C@@H](Cc1c[nH]c2ccccc12)C(=O)N[C@@H](CO)C(N)=O)[C@@H](C)O)C(C)C)C(C)C)C(C)C)[C@@H](C)O)C(C)C)C(C)C` (stereo partly drawn) [Cy5-P0_1–25] (H-IVVYTDREVHGAVGSRVTLHC(X1)SFWS-NH2) the same measures were 12 µM (≈ 44.5 µg/mL) and more than 1 µM.

Values taken from paper PMC8164657, “Intraoperative visualization of nerves using a myelin protein-zero specific fluorescent tracer” (EJNMMI Research, 2021).
